# Patent US12290596B2, “Compositions and methods for the treatment of opioid overdose” (priority 2021, dated 2025)
# Test: Two-period crossover pharmacokinetics of nalmefene 3 mg IN vs 1.0 mg IM (Example 12)
# Settings: for AUC(0-inf): AUCinf; for half-life: T1/2, Treatment B: IM 1.0 mg nalmefene hydrochloride; for Vd/F: Vz/F
# [1] = Treatment A: 3.0 mg nalmefene hydrochloride IN, plasma, Max, n 66
# [2] = Treatment A: 3.0 mg nalmefene hydrochloride IN, plasma, Min, n 66
# [3] = Treatment B: 1.0 mg nalmefene IM (gluteal muscle), plasma, Max, n 68
# [4] = Treatment B: 1.0 mg nalmefene IM (gluteal muscle), plasma, Min, n 68
# [5] = Treatment B: IM 1.0 mg nalmefene hydrochloride, plasma, Geo. Mean, n=68
# [6] = Treatment B: IM 1.0 mg nalmefene hydrochloride, plasma, Max, n=68
# [7] = Treatment B: IM 1.0 mg nalmefene hydrochloride, plasma, Mean, n=68
# [8] = Treatment B: IM 1.0 mg nalmefene hydrochloride, plasma, Median, n=68
# [9] = Treatment B: IM 1.0 mg nalmefene hydrochloride, plasma, Min, n=68
# [10] = human, plasma, im, 1 mg, GeoMean, Treatment B 1.0 mg IM (Ref)
# [11] = human, plasma, im, 1 mg, Treatment B: IM 1.0 mg nalmefene hydrochloride, plasma, Geo. Mean, n=68
# [12] = human, plasma, im, 1 mg, Treatment B: IM 1.0 mg nalmefene hydrochloride, plasma, Median, n=68
# [13] = human, plasma, im, 1 mg, Treatment B: IM 1.0 mg nalmefene hydrochloride, plasma, Mean, n=68
smiles,measurement,setting,value
"C=C1CC[C@@]2(O)[C@H]3Cc4ccc(O)c5c4[C@@]2(CCN3CC2CC2)[C@H]1O5 [Nalmefene, 17-cyclopropylmethyl-4,5α-epoxy-6-methylenemorphinan-3,14-diol]",Plasma concentrations compared to an intramuscular injection,"3 mg IN vs 1.0 mg IM, p<0.0001",significantly higher plasma concentrations
same,AUC0-5 min,[1],0.588 ng·h/mL
same,AUC0-10 min,[1],2.78 ng·h/mL
same,AUC0-15 min,[1],5.03 ng·h/mL
same,AUC0-20 min,[1],6.79 ng·h/mL
same,AUC0-30 min,[1],9.16 ng·h/mL
same,AUC0-[…],[1],0.155 ng·h/mL
same,AUC0-10 min,[2],0.0815 ng·h/mL
same,AUC0-15 min,[2],0.196 ng·h/mL
same,AUC0-30 min,[2],0.802 ng·h/mL
same,AUC0-10 min,[3],0.631 ng·h/mL
same,AUC0-15 min,[3],1.05 ng·h/mL
same,AUC0-20 min,[3],1.33 ng·h/mL
same,AUC0-30 min,[3],1.77 ng·h/mL
same,AUC0-[…],[3],0.0249 ng·h/mL
same,AUC0-15 min,[4],0.0218 ng·h/mL
same,AUC0-20 min,[4],0.0402 ng·h/mL
same,AUC0-30 min,[4],0.0845 ng·h/mL
same,AUCExtrap,[5],3.94%
same,CL/F,[5],59.6 L/h
same,Kel,[5],0.0667 h⁻¹
same,Tlast,[5],48.0 h
same,AUCExtrap,[6],13.3%
same,AUClast,[6],24.2 ng·h/mL
same,CL/F,[6],91.8 L/h
same,Kel,[6],0.0968 h⁻¹
same,AUCExtrap,[7],4.50%
same,CL/F,[7],60.7 L/h
same,Kel,[7],0.0677 h⁻¹
same,Tlast,[7],48.0 h
same,AUCExtrap,[8],3.86%
same,CL/F,[8],58.7 L/h
same,Kel,[8],0.0695 h⁻¹
same,Tlast,[8],48.0 h
same,AUCExtrap,[9],1.13%
same,AUClast,[9],10.5 ng·h/mL
same,CL/F,[9],40.0 L/h
same,Kel,[9],0.0394 h⁻¹
same,Tlast,[9],48.0 h
same,AUC(0-t),"human, plasma, im, 1 mg, AUC0-5 min, GeoMean, Treatment B 1.0 mg IM (Ref)",0.01 ng·h/mL
same,AUC(0-t),"human, plasma, im, 1 mg, AUC0-5 min, Treatment B: 1.0 mg nalmefene IM (gluteal muscle), plasma, Geo. Mean, n 68",0.0102 ng·h/mL
same,AUC(0-t),"human, plasma, im, 1 mg, AUC0-5 min, Treatment B: 1.0 mg nalmefene IM (gluteal muscle), plasma, Mean, n 68",0.0181 ng·h/mL
same,AUC(0-t),"human, plasma, im, 1 mg, AUC0-10 min, GeoMean, Treatment B 1.0 mg IM (Ref)",0.064 ng·h/mL
same,AUC(0-t),"human, plasma, im, 1 mg, AUC0-10 min, Treatment B: 1.0 mg nalmefene IM (gluteal muscle), plasma, Geo. Mean, n 68",0.0639 ng·h/mL
same,AUC(0-t),"human, plasma, im, 1 mg, AUC0-10 min, Treatment B: 1.0 mg nalmefene IM (gluteal muscle), plasma, Mean, n 68",0.0994 ng·h/mL
same,AUC(0-t),"human, plasma, im, 1 mg, AUC0-10 min, Treatment B: 1.0 mg nalmefene IM (gluteal muscle), plasma, Median, n 68",0.0583 ng·h/mL
same,AUC(0-t),"human, plasma, im, 1 mg, AUC0-15 min, GeoMean, Treatment B 1.0 mg IM (Ref)",0.142 ng·h/mL
same,AUC(0-t),"human, plasma, im, 1 mg, AUC0-15 min, Treatment B: 1.0 mg nalmefene IM (gluteal muscle), plasma, Geo. Mean, n 68",0.142 ng·h/mL
same,AUC(0-t),"human, plasma, im, 1 mg, AUC0-15 min, Treatment B: 1.0 mg nalmefene IM (gluteal muscle), plasma, Mean, n 68",0.2 ng·h/mL
same,AUC(0-t),"human, plasma, im, 1 mg, AUC0-15 min, Treatment B: 1.0 mg nalmefene IM (gluteal muscle), plasma, Median, n 68",0.143 ng·h/mL
same,AUC(0-t),"human, plasma, im, 1 mg, AUC0-20 min, GeoMean, Treatment B 1.0 mg IM (Ref)",0.228 ng·h/mL
same,AUC(0-t),"human, plasma, im, 1 mg, AUC0-20 min, Treatment B: 1.0 mg nalmefene IM (gluteal muscle), plasma, Geo. Mean, n 68",0.228 ng·h/mL
same,AUC(0-t),"human, plasma, im, 1 mg, AUC0-20 min, Treatment B: 1.0 mg nalmefene IM (gluteal muscle), plasma, Mean, n 68",0.299 ng·h/mL
same,AUC(0-t),"human, plasma, im, 1 mg, AUC0-20 min, Treatment B: 1.0 mg nalmefene IM (gluteal muscle), plasma, Median, n 68",0.228 ng·h/mL
same,AUC(0-t),"human, plasma, im, 1 mg, AUC0-30 min, GeoMean, Treatment B 1.0 mg IM (Ref)",0.405 ng·h/mL
same,AUC(0-t),"human, plasma, im, 1 mg, AUC0-30 min, Treatment B: 1.0 mg nalmefene IM (gluteal muscle), plasma, Geo. Mean, n 68",0.405 ng·h/mL
same,AUC(0-t),"human, plasma, im, 1 mg, AUC0-30 min, Treatment B: 1.0 mg nalmefene IM (gluteal muscle), plasma, Mean, n 68",0.491 ng·h/mL
same,AUC(0-t),"human, plasma, im, 1 mg, AUC0-30 min, Treatment B: 1.0 mg nalmefene IM (gluteal muscle), plasma, Median, n 68",0.389 ng·h/mL
same,AUC(0-t),"human, plasma, im, 1 mg, AUCLast, GeoMean, Treatment B 1.0 mg IM (Ref)",16 ng·h/mL
same,AUC(0-inf),[10],16.8 ng·h/mL
same,AUC(0-inf),[11],16.8 ng·h/mL
same,AUC(0-inf),[12],17 ng·h/mL
same,AUC(0-t),"human, plasma, im, 1 mg, AUClast, Treatment B: IM 1.0 mg nalmefene hydrochloride, plasma, Geo. Mean, n=68",16 ng·h/mL
same,AUC(0-t),"human, plasma, im, 1 mg, AUClast, Treatment B: IM 1.0 mg nalmefene hydrochloride, plasma, Mean, n=68",16.3 ng·h/mL
same,AUC(0-t),"human, plasma, im, 1 mg, AUClast, Treatment B: IM 1.0 mg nalmefene hydrochloride, plasma, Median, n=68",15.9 ng·h/mL
same,Cmax,[10],1.5 ng/mL
same,Cmax,[11],1.5 ng/mL
same,Cmax,[13],1.77 ng/mL
same,Cmax,[12],1.52 ng/mL
same,half-life,"human, plasma, im, 1 mg, plasma, Geo. Mean, n=68",10.4 h
same,half-life,"human, plasma, im, 1 mg, plasma, Mean, n=68",10.6 h
same,half-life,"human, plasma, im, 1 mg, plasma, Median, n=68",9.98 h
same,Tmax,"human, plasma, im, 1 mg, Tmax, Treatment B: IM 1.0 mg nalmefene hydrochloride, plasma, Geo. Mean, n=68",0.603 h
same,Vd/F,[11],894 L
same,Vd/F,[13],916 L
same,concentration at 0 h,"human, plasma, intramuscular, 1 mg, Mean plasma concentration, Treatment B 1.0 mg IM, 0.00 h",0.00352 ng/mL
same,concentration at 0.5 h,"human, plasma, intramuscular, 1 mg, Mean plasma concentration, Treatment B 1.0 mg IM, 0.500 h",1.11 ng/mL
same,concentration at 2 h,"human, plasma, intramuscular, 1 mg, Mean plasma concentration, Treatment B 1.0 mg IM, 2.00 h",0.972 ng/mL
